In patent US20070219180A1, “Muscle Relaxtion Accelerator and Therapeutic Agent for Muscular Tissue Diseases Such as Muscle Relaxation Failure” (priority 2004, published 2007):
Values joined by “and” are separate entries in the source; they are usually repeats but may differ in a detail not shown here. Equal values may be shown once.

Test system: male Wistar rats
Test: Experiment 12: effect on myocardial microcirculation (microsphere myocardial tissue blood flow rate)
Assay type: in vivo, rat
Method: The effects of the compound on myocardial microcirculation were examined. In this experiment, the 1-hydrochloride of the compound, 4-[3-(4-benzylpiperidin-1-yl)propionyl]-7-methoxy-2,3,4,5-tetrahydro-1,4-benzothiazepine 1-hydrochloride (hereinafter called the compound) was used as the 1,4-benzothiazepine derivative or pharmaceutically acceptable salt thereof.
Four 8-week old male Wistar rats weighing 300-310 g were used in the study. The rats were anesthetized with 1,000 mg/kg of urethane and 80 mg/kg of α-chloralose by subperitoneal injection under artificial respiration (Harvard) using endotracheal intubation. In this experiment, 100 mg of the compound was dissolved in 1 ml of dimethylsulfoxide (DMSO) and the resulting DMSO solution of the compound was stored at 4° C. Norepinephrine solution was prepared by dissolving 1 mg of norepinephrine in 41 μl of distilled water, at an infusion speed of 30 μg/kg/min.
Firstly, continuous infusion catheters of calcium chloride solution or norepinephrine solution containing calcium chloride were inserted into the right external jugular veins of the rats, and 2F polyethylene catheters for microspheres were inserted into the left ventricles via the right common arteries. In addition, test drug infusion catheters were inserted into the right femoral veins.
A 1-lead electrocardiogram and the left ventricular pressure were recorded simultaneously on a personal computer via an A/D converter. In the preparation step, blood pressure, pulse, and electrocardiogram of the rats were monitored for 15 minutes and allowed to stabilize, and then 5% dextrose solution containing calcium chloride (at a concentration based on the weight of the rat) was infused into the right external jugular vein for 20 minutes at 16.6 μl/min (12 mg/kg/min of calcium chloride). Next, norepinephrine solution containing calcium chloride without changes in dosage regimen was immediately injected at a rate of 30 μg/kg/min via the right external jugular vein. After the start of administration, calcium chloride and norepinephrine were then continuously injected in the form of a norepinephrine solution containing calcium chloride. With continuous injection of calcium chloride via the right external jugular vein, 5% dextrose solution containing 0.1% DMSO solution was administered via the right femoral vein to Control A rat weighing 310 g (to which the compound was not administered) and to Control B rat weighing 300 g (to which the compound was not administered), 5 minutes before commencement of injection (intravenous injection) of the norepinephrine solution containing calcium chloride. In addition, with continuous injection of calcium chloride via the right external jugular vein, a 5% dextrose solution of the compound was continuously administered to Test 15 rat weighing 300 g and Test 16 rat weighing 300 g for 3 minutes at a rate of 0.33 mg/kg/min and subsequently for 25 minutes at a rate of 0.01 mg/kg/min, 5 minutes before commencement of injection (intravenous injection) of the norepinephrine solution containing calcium chloride via the right external jugular vein. The infusion rate was 0.5 ml/3 minutes for the first 3 minutes and then 0.05 ml/3 minutes.
Myocardial tissue blood flow rate was measured twice using microspheres, 5 minutes before the start of calcium chloride administration and 20 minutes after the start of administration of norepinephrine solution containing calcium chloride. […]

SMILES: COc1ccc2c(c1)CN(C(=O)CCN1CCC(Cc3ccccc3)CC1)CCS2 [the compound, 4-[3-(4-benzylpiperidine-1-yl)propionyl]-7-methoxy-2,3,4,5-tetrahydro-1,4-benzothiazepine]
- Myocardial tissue blood flow rate (5 minutes before the start of CaCl2 administration (baseline), compound later 0.33 mg/kg/min 3 min then 0.01 mg/kg/min 25 min): 4.6 mL/min/g and 4.3 mL/min/g
- Myocardial tissue blood flow rate, ratio to 5 minutes before CaCl2 (5 minutes before the start of CaCl2 administration (defined as 100%)): 100%
- Decrease in myocardial tissue blood flow under diastolic dysfunction with administration of the compound (20 minutes after the start of norepinephrine containing CaCl2): ≤ 30%
- Myocardial tissue blood flow rate, ratio to 5 minutes before CaCl2 (20 minutes after the start of norepinephrine solution containing CaCl2, compound 0.33 mg/kg/min 3 min then 0.01 mg/kg/min 25 min): 70% and 98%
- Myocardial tissue blood flow rate (20 minutes after the start of norepinephrine solution containing CaCl2, compound 0.33 mg/kg/min 3 min then 0.01 mg/kg/min 25 min, from 5 min before norepinephrine): 3.2 mL/min/g and 4.2 mL/min/g
